The source of these data is patent US9399646B2 (Genentech, Inc., priority 2010, dated 2016).

Bounds are passed on as bounds.

Experiment [1] concerns MCF-7 cells. Kind of experiment: Breast cancer cell viability assay (CellTiter-Glo, 5 days). It is filed as cell-based. As to conditions: 5 days' compound exposure; for IC50: Homo sapiens, MCF7, 120 h. A digest of the protocol:
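MCF-7 cells, 320 per well in RPMI with 10% FBS and 20 mM HEPES, adhered overnight, then exposed 5 days to an eleven-point semilog dilution (final 0.3-0.000003 μM). CellTiter-Glo luminescence read; % viability = (sample − cell-free background)/(untreated − background) × 100.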

Experiment [2] deals with T1, ER-α in MCF-7 cells (Homo sapiens, UniProt P03372).
T1 sequence (P03372 1-595): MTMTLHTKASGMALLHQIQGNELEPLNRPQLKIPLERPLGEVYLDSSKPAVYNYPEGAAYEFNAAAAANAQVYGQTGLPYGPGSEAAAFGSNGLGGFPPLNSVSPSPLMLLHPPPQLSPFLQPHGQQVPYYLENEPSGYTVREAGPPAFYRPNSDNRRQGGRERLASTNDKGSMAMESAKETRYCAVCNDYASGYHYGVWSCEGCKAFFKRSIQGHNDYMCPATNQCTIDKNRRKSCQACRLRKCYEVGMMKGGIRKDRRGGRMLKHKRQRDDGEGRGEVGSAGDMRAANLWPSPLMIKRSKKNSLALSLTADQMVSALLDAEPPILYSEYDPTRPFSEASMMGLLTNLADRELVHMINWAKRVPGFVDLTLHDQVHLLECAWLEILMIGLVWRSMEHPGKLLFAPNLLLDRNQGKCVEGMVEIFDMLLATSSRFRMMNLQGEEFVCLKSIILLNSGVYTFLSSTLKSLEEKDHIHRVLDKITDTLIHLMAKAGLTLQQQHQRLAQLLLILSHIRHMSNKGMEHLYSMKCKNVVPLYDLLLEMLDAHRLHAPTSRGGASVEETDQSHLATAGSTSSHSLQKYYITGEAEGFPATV
Kind of experiment: Breast cancer cell ER-α in cell western assay (SP1). It is filed as cell-based. The note with it: 4 or 24 hr post compound addition; for Emax: MCF7, SP1 antibody, read-out: ER-α In Cell Western Assay (SP1) Max Response; for DC50: SP1 antibody, read-out: ER-α In Cell Western Assay (SP1) IC50. Also noted: endogenous in cells; host or cells: MCF-7. A digest of the protocol:
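Read-out is infrared in-cell western: SP1-detected ER intensity at 800 nm divided by DRAQ5 DNA intensity at 700 nm, relative to untreated wells ×100.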

As usually defined, the IC50 is the concentration needed to halve the response being measured. The low end stands for greater potency, the high end for weaker potency. As to `O=C(/C=C/c1ccc(/C(=C(\c2ccccc2)C2CCC2)c2ccc3[nH]nc(F)c3c2)cc1)NCC(F)(F)F` [Compound 415, (E)-3-(4-((E)-2-Cyclobutyl-1-(3-fluoro-1H-indazol-5-yl)-2-phenylvinyl)phenyl)-N-(2,2,2-trifluoroethyl)acrylamide], in experiment [1], the “MCF7 Viability Assay Max Response” value is recorded as “++ (++ = a single % value ≧ 40%)” and the IC50 is at most 100 nM. Besides, in experiment [2], the Emax was at least 40% and the DC50 is at most 100 nM.
Regarding `O=C(O)/C=C/c1ccc(/C(=C(\c2ccncc2Cl)C2CCC2)c2ccc3[nH]ncc3c2)cc1` [Compound 305, (E)-3-(4-((E)-2-(3-Chloropyridin-4-yl)-2-cyclobutyl-1-(1H-indazol-5-yl)vinyl)phenyl)acrylic acid], in experiment [1], the “MCF7 Viability Assay Max Response” value is reported as “++ (++ = a single % value ≧ 40%)” and the IC50 is at most 100 nM. Moreover, in experiment [2], the Emax was at least 40% and the DC50 is at most 100 nM.
Regarding `CC/C(=C(/c1ccc(/C=C/C(=O)O)cc1)c1ccc2c(cnn2C(=O)C(C)C)c1)c1ccc(F)cc1Cl` [Compound 404, (E)-3-(4-((E)-2-(2-Chloro-4-fluorophenyl)-1-(1-isobutyryl-1H-indazol-5-yl)but-1-en-1-yl)phenyl)acrylic acid], in experiment [1], the “MCF7 Viability Assay Max Response” value is given as “++ (++ = a single % value ≧ 40%)” and the IC50 was at most 100 nM. Further, in experiment [2], the Emax was at least 40% and the DC50 was at most 100 nM.
In the case of `CCOC(=O)/C=C/c1ccc(/C(=C(/CC)c2ccccc2)c2ccc3cn[nH]c3c2)cc1` [Compound 172, (E)-Ethyl 3-(4-((E)-1-(1H-indazol-6-yl)-2-phenylbut-1-en-1-yl)phenyl)acrylate], in experiment [1], the “MCF7 Viability Assay Max Response” value is given as “+ (+ = a single % value < 40%)” and the IC50 was at most 100 nM. Besides, in experiment [2], the Emax is at least 40% and the DC50 is above 100 nM.
With `CCOC(=O)/C=C/c1ccc(/C(=C(/CC)c2ccccc2)c2cccc3[nH]ncc23)cc1` [Compound 175, (E)-Ethyl 3-(4-((E)-1-(1H-Indazol-4-yl)-2-phenylbut-1-en-1-yl)phenyl)acrylate], in experiment [1], the “MCF7 Viability Assay Max Response” value is on record as “+ (+ = a single % value < 40%)” and the IC50 was at most 100 nM. Further, in experiment [2], the Emax is at least 40% and the DC50 is at most 100 nM.
For the compound `CC/C(=C(/c1ccc(/C=C/C(=O)NS(=O)(=O)c2ccccn2)cc1)c1ccc2[nH]ncc2c1)c1ccc(F)cc1Cl` [Compound 432, (E)-3-(4-((E)-2-(2-Chloro-4-fluorophenyl)-1-(1H-indazol-5-yl)but-1-en-1-yl)phenyl)-N-(pyridin-2-ylsulfonyl)acrylamide], in experiment [1], the “MCF7 Viability Assay Max Response” value is reported as “++ (++ = a single % value ≧ 40%)” and the IC50 is at most 100 nM. In addition, in experiment [2], the Emax was at least 40% and the DC50 was at most 100 nM.
For `CC/C(=C(/c1ccc(/C=C/C(=O)O)cc1)c1ccc2[nH]ncc2c1)c1cccc(N2CCCC2)c1` [Compound 249], in experiment [1], the “MCF7 Viability Assay Max Response” value is “++ (++ = a single % value ≧ 40%)” and the IC50 was above 100 nM. Besides, in experiment [2], the Emax is at least 40% and the DC50 is at most 100 nM.
Taken in the same sequence, the figures for `CC/C(=C(/c1ccc(/C=C/C(=O)O)cc1)c1ccc2c(c1)SCC(=O)N2)c1ccccc1` [Compound 103, (E)-3-(4-((E)-1-(3-Oxo-3,4-dihydro-2H-benzo[b][1,4]thiazin-7-yl)-2-phenylbut-1-en-1-yl)phenyl)acrylic acid] were “++ (++ = a single % value ≧ 40%)”, above 100 nM, at least 40% and above 100 nM.
In the case of `CC/C(=C(/c1ccc(/C=C/C(=O)NC)cc1)c1ccc2scnc2c1)c1ccccc1` [Compound 427, (E)-3-(4-((E)-1-(Benzo[d]thiazol-5-yl)-2-phenylbut-1-en-1-yl)phenyl)-N-methylacrylamide], in experiment [1], the “MCF7 Viability Assay Max Response” value is “++ (++ = a single % value ≧ 40%)” and the IC50 is at most 100 nM. In addition, in experiment [2], the Emax was at least 40% and the DC50 is at most 100 nM.
As to `CC/C(=C(/c1ccc(/C=C/C(=O)O)cc1)c1ccn2cnnc2c1)c1ccccc1` [Compound 134, (E)-3-(4-((E)-1-([1,2,4]Triazolo[4,3-a]pyridin-7-yl)-2-phenylbut-1-en-1-yl)phenyl)acrylic acid], in experiment [1], the “MCF7 Viability Assay Max Response” value is recorded as “+ (+ = a single % value < 40%)” and the IC50 was above 100 nM. In experiment [2], the Emax was below 40% and the DC50 is above 100 nM.
`CC/C(=C(/c1ccc(/C=C/c2noc(=O)[nH]2)cc1)c1ccc2scnc2c1)c1ccc(F)cc1Cl` [Compound 436, 3-((E)-4-((E)-1-(Benzo[d]thiazol-5-yl)-2-(2-chloro-4-fluorophenyl)but-1-en-1-yl)styryl)-1,2,4-oxadiazol-5(4H)-one]: in experiment [1], the “MCF7 Viability Assay Max Response” value is reported as “++ (++ = a single % value ≧ 40%)” and the IC50 was at most 100 nM. Further, in experiment [2], the Emax is at least 40% and the DC50 is at most 100 nM.
As to `CC/C(=C(/c1ccc(/C=C/C(=O)O)cc1)c1ccc2[nH]ncc2c1)c1cccc(-c2ccccn2)c1` [Compound 390, (E)-3-(4-((E)-1-(1H-Indazol-5-yl)-2-(3-(pyridin-2-yl)phenyl)but-1-en-1-yl)phenyl)acrylic acid], in experiment [1], the “MCF7 Viability Assay Max Response” value is on record as “++ (++ = a single % value ≧ 40%)” and the IC50 was at most 100 nM. In addition, in experiment [2], the Emax was at least 40% and the DC50 is at most 100 nM.
Regarding `CC/C(=C(/c1ccc(/C=C/C(=O)O)cc1)c1ccc2[nH]ncc2c1)c1ccc2cnn(C)c2c1` [Compound 258, (E)-3-(4-((E)-1-(1H-Indazol-5-yl)-2-(1-methyl-1H-indazol-6-yl)but-1-en-1-yl)phenyl)acrylic acid], in experiment [1], the “MCF7 Viability Assay Max Response” value is given as “++ (++ = a single % value ≧ 40%)” and the IC50 is above 100 nM. In addition, in experiment [2], the Emax is at least 40% and the DC50 was at most 100 nM.
The like results for `CC/C(=C(/c1ccc(/C=C/C(=O)O)cc1)c1ccc2[nH]ncc2c1F)c1cccc(OC2CCOCC2)c1` [Compound 344, (E)-3-(4-((E)-1-(4-Fluoro-1H-indazol-5-yl)-2-(3-((tetrahydro-2H-pyran-4-yl)oxy)phenyl)but-1-en-1-yl)phenyl)acrylic acid] were, in that order, “++ (++ = a single % value ≧ 40%)”, above 100 nM, at least 40% and at most 100 nM.
As for `CC/C(=C(/c1ccc(/C=C/C(=O)O)cc1)c1ccnc2[nH]ncc12)c1ccccc1` [Compound 56, (E)-3-(4-((E)-2-Phenyl-1-(1H-pyrazolo[3,4-b]pyridin-4-yl)but-1-en-1-yl)phenyl)acrylic acid], in experiment [1], the “MCF7 Viability Assay Max Response” value is reported as “++ (++ = a single % value ≧ 40%)” and the IC50 is above 100 nM. Also, in experiment [2], the Emax is at least 40% and the DC50 was at most 100 nM.
For the compound `CC/C(=C(/c1ccc(/C=C/C(=O)O)cc1)c1coc2c(O)cccc12)c1ccccc1` [Compound 451, (E)-3-(4-((E)-1-(7-Hydroxybenzofuran-3-yl)-2-phenylbut-1-en-1-yl)phenyl)acrylic acid], in experiment [1], the “MCF7 Viability Assay Max Response” value is on record as “++ (++ = a single % value ≧ 40%)” and the IC50 was at most 100 nM. In experiment [2], the Emax is at least 40% and the DC50 is at most 100 nM.
Take `CC/C(=C(/c1ccc(/C=C/C(=O)O)cc1)c1ccc2[nH]ncc2c1)c1ccc2sccc2c1` [Compound 272, (E)-3-(4-((E)-2-(Benzo[b]thiophen-5-yl)-1-(1H-indazol-5-yl)but-1-en-1-yl)phenyl)acrylic acid]: in experiment [1], the “MCF7 Viability Assay Max Response” value was “++ (++ = a single % value ≧ 40%)” and the IC50 was at most 100 nM. In addition, in experiment [2], the Emax was at least 40% and the DC50 is at most 100 nM.
Turning to `CS(=O)(=O)c1ccc(Oc2ccc(/C(=C(\c3ccc(/C=C/C(=O)O)cc3)c3ccc4[nH]ncc4c3)C3CCC3)cc2)nc1` [Compound 162, (E)-3-(4-((E)-2-Cyclobutyl-1-(1H-indazol-5-yl)-2-(4-((5-(methylsulfonyl)pyridin-2-yl)oxy)phenyl)vinyl)phenyl)acrylic acid], in experiment [1], the “MCF7 Viability Assay Max Response” value is reported as “++ (++ = a single % value ≧ 40%)” and the IC50 was at most 100 nM. Moreover, in experiment [2], the Emax was at least 40% and the DC50 was at most 100 nM.
With `CC/C(=C(/c1ccc(/C=C/C(=O)O)cc1)c1ccc2[nH]ncc2c1)c1ccc(-c2ccccn2)cc1` [Compound 385, (E)-3-(4-((E)-1-(1H-Indazol-5-yl)-2-(4-(pyridin-2-yl)phenyl)but-1-en-1-yl)phenyl)acrylic acid], in experiment [1], the “MCF7 Viability Assay Max Response” value is recorded as “++ (++ = a single % value ≧ 40%)” and the IC50 is above 100 nM. Besides, in experiment [2], the Emax is at least 40% and the DC50 is at most 100 nM.
